Experimental data taken from patent publication US8008007B2, “S-adenosyl-L-methionine analogs with extended activated groups for transfer by methyltransferases” (RWTH Aachen, priority 2005, dated 2011).

Key:
Type in all cases: biochemical
M.TaqI = target: T1, M.TaqI (Thermus aquaticus, UniProt P14385); assay: DNA protection assay with M.TaqI (wild-type) on phage lambda DNA; settings: cofactor 300 μM, then R.TaqI
T1 construct: made in house
Excerpt: (§1) Transfer kinetics of the activated ethyl (—CH2CH3), propyl (—CH2CH2CH3), prop-2-enyl (—CH2CH═CH2), prop-2-ynyl (—CH2C≡CH), but-2-ynyl (—CH2C≡CCH3), pent-2-ynyl (—CH2C≡CCH2CH3) and benzyl group (—CH2C6H5) from cofactors 3-9 by the DNA adenine-N6 methyltransferase M.TaqI and its variant V21 G, the DNA cytosine-C5 methyltransferase M.HhaI and its variant Q82A, the DNA cytosine-N4 methyltransferase M.BcnIB and the DNA cytosine-C5 methyltransferase M.SssI variant Q142A to phage lambda DNA (48502 base pairs) were investigated using a DNA protection assay. This assay makes use of the fact that DNA methyltransferase-catalyzed modifications of nucleobases within the recognition sequences of restriction endonucleases can protect the DNA against fragmentation by these enzymes. […] Unmodified DNA containing 5′-TCGA-3′ recognition sequences is readily fragmentated by R.TaqI. After DNA modification by M.TaqI in the presence of a cofactor with an activated group Z—R modified 5′-TCGA^Z—R-3′ sequences are formed and, as a result, R.TaqI is unable to fragment the modified DNA. Occurrence of fragmentation is then analyzed by agarose gel electrophoresis.
(§2) By varying the amounts of DNA methyltransferase, this assay is used to investigate the enzymatic activities of the different DNA methyltransferases with cofactors 3-9 and compare them to the enzymatic activities with the natural cofactor 1. The minimal amount of DNA methyltransferase needed to fully protect 1 μg of phage lambda DNA against restriction endonuclease fragmentation under the given experimental conditions is defined as one enzyme unit (u).
(§3) Afterwards a solution (30 μL) containing R.TaqI restriction endonuclease (40 u, MBI Fermentas), bovine serum albumin (0.166 mg/mL) and buffer (16.6 mM Tris hydrochloride, 166 mM sodium chloride, 8.3 mM magnesium chloride, pH 8.0) was added to each dilution and incubation at 60-65° C. was continued for 15 min. Loading buffer (10 μL, 0.25% bromphenol blue, 30% glycerol) was added to each sample, and aliquots (12 μL) were analyzed for the degree of protection by agarose gel (1%) electrophoresis. Parallel control experiments were performed with phage lambda DNA in the absence of M.TaqI and in the presence of M.TaqI (200 ng).
Afterwards a solution (10 μL) containing R.TaqI restriction endonuclease (10 u, MBI Fermentas), bovine serum albumin (0.1 mg/mL) and buffer (33 mM Tris acetate, 66 mM potassium acetate, 10 mM magnesium acetate, pH 7.9) was added to each dilution and incubation was continued at 65° C. for 1 h. […] Parallel control experiments were performed with phage lambda DNA in the absence of M.TaqI and in the presence of M.TaqI (180 ng).

M.HhaI-Q82A = target: T2, M.HhaI-Q82A (Haemophilus parahaemolyticus, UniProt P05102, Q82A); assay: Modification of cytosine-C5 in duplex oligodeoxynucleotide III.IV by M.HhaI-Q82A, nucleoside analysis by HPLC/ESI-MS; settings: duplex III.IV 12.5 μM, cofactor 300 μM, enzyme 15 μM, 37° C. over night
T2 construct: made in house
Excerpt: Transfer of the activated ethyl (CH2CH3), propyl (CH2CH2CH3), prop-2-enyl (CH2CHCH2), prop-2-ynyl group (CH2CCH), but-2-ynyl (CH2CCCH3), pent-2-ynyl (CH2CCCH2CH3) or benzyl group (CH2C6H5) from cofactors 3-9 by the DNA adenine-N6 methyltransferase M.TaqI, the DNA cytosine-C5 methyltransferase M.HhaI variant Q82A or the DNA cytosine-N4 methyltransferase M.BcnIB to DNA was first investigated using short duplex oligodeoxynucleotides as substrates. After enzymatic transfer the duplex oligodeoxynucleotides were enzymatically fragmented and the resulting modified nucleosides were analyzed by reversed-phase HPLC coupled with ESI-MS.
Therefore, the codon for Q82 was changed to a codon for alanine by standard Kunkel mutagenesis (Kunkel et al., […] Proc. Natl. Acad. Sci. USA 82, 488-492) and the correct DNA sequence of the complete gene was verified by DNA sequencing. Expression and purification of the Q82A variant was performed as described for the wild-type enzyme (Kumar et al., (1992) Biochemistry 31, 8648-8653; Klimasauskas et al., (1998) EMBO J. 17, 317-324). The presence of the amino acid substitution was verified by mass spectrometric analysis of purified M.HhaI-Q82A.
The duplex oligodeoxynucleotide III.IV was produced by mixing equal molar amounts (2.5 nmol) of complementary single-stranded oligodeoxynucleotide III (5′-[…]-3′) (SEQ ID NO. 3) and IV (5′-[…]-3′) (SEQ ID NO. 4) in water, heating at 85° C. for 5 min and slow cooling to room temperature. […] M.HhaI-Q82A was denatured by heating to 80° C. for 10 min and incubation with Proteinase K at 55° C. for 1 h. Hydrolysis products were removed by gel filtration (G-25 column, Amersham Biosciences).
The obtained solutions of duplex oligodeoxynucleotides were treated with buffer ( 1/10 volume, 100 mM Tris hydrochloride, 100 mM magnesium chloride, 10 mM zinc acetate, pH 7.5) containing Nuclease P1 (1500 u, Sigma) and calf intestine alkaline phosphatase (30 u, MBI Fermentas) and incubated at 37° C. for 4 h. Nucleosides were analyzed by reversed-phase HPLC (Discovery C18 150×2.1 mm, 5 μm, equipped with a Supelguard Discovery C18 20×2.1 mm, 5 μm, pre-column, Supelco, Germany) coupled with a mass spectrometric detector (HP 1100 series ESI-MS equipped with single quadruple). Compounds were eluted with methanol (0% for 6 min, followed by linear gradients to 56% in 15 min and to 80% in 1 min) in ammonium formate buffer (20 mM, pH 4.25 for cofactors 3, 4, 6 and pH 3.5 for cofactors 5, 7, 8) at a flow of 0.3 mL/min and detected at 280 nm. For on-line mass spectrometric detection post-column mobile phase modification (equal co-flow of 96% methanol, 4% formic acid and 1 mM sodium hydroxide) was used to enhance the detection efficiency of 2′-deoxycytidine and its derivatives. Mass spectra were recorded in 50-600 m/z range.

M.TaqI-V21G = target: T3, M.TaqI-V21G (Thermus aquaticus, UniProt P14385, V21G); assay: DNA protection assay with M.TaqI variant V21G on phage lambda DNA; settings: 1 μg phage lambda DNA, cofactor 300 μM, 60° C. for 4 h, then R.TaqI
T3 construct: made in house
Excerpt: as §1, §2, §3
Therefore, the codon for V21 was changed to a codon for glycine by standard PCR mutagenesis (Ho et al., (1989) Gene 77, 51-59) and the correct DNA sequence of the complete gene was verified by DNA sequencing. […] The DNA protection assay with the V21G variant was performed as described for the wild type (Example 3A.1).

[1] = 1 μg phage lambda DNA, 60° C. for 4 h, 1 u = minimal enzyme amount fully protecting 1 μg DNA

T1 sequence (P14385 whole entry): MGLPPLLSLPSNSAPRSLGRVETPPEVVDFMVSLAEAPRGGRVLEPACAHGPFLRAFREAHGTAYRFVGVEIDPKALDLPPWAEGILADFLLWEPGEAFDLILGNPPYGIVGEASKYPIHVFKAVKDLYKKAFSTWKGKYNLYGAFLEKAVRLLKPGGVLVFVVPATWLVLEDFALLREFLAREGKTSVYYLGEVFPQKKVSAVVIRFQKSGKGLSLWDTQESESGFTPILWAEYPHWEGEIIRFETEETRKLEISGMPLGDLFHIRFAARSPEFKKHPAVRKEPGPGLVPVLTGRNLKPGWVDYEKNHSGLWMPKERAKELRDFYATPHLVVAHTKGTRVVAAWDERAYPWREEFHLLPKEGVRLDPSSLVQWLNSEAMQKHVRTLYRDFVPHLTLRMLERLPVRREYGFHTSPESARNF
T2 sequence (P05102 whole entry Q82A): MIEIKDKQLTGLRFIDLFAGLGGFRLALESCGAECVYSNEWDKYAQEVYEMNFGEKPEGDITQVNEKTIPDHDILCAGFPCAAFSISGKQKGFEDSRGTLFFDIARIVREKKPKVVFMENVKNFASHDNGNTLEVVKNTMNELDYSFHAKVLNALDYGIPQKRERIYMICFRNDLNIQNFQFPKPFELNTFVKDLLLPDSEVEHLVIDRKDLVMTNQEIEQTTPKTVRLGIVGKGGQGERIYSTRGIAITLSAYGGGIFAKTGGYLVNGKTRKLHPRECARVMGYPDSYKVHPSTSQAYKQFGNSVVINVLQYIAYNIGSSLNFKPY
T3 sequence (P14385 whole entry V21G): as the sequence (P14385 whole entry) above, with V21G counted along it

SMILES: CC#CC[S+](CCC(N)C(=O)O)CC1OC(n2cnc3c(N)ncnc32)C(O)C1O (mixture of isomers) [Cofactor 7]
- specific activity of M.TaqI with the cofactor (M.TaqI; [1]): 1280 u/μg
- cofactor function for M.HhaI-Q82A (transfer of group Z-R to cytosine-C5) (M.HhaI-Q82A): functions as a cofactor
- specific activity of M.TaqI-V21G with the cofactor (M.TaqI-V21G): 80 u/μg

SMILES: CC[S+](CCC(N)C(=O)O)CC1OC(n2cnc3c(N)ncnc32)C(O)C1O (stereo not shown) [Cofactor 3]
- specific activity of M.TaqI with the cofactor (M.TaqI; [1]): 10 u/μg
- cofactor function for M.HhaI-Q82A (transfer of group Z-R to cytosine-C5) (M.HhaI-Q82A): functions as a cofactor
- specific activity of M.TaqI-V21G with the cofactor (M.TaqI-V21G): 5 u/μg

SMILES: CCC[S+](CCC(N)C(=O)O)CC1OC(n2cnc3c(N)ncnc32)C(O)C1O (stereo not shown) [Cofactor 4]
- specific activity of M.TaqI with the cofactor (M.TaqI; [1]): < 5 u/μg
- cofactor function for M.HhaI-Q82A (transfer of group Z-R to cytosine-C5) (M.HhaI-Q82A): does not function as a cofactor
- specific activity of M.TaqI-V21G with the cofactor (M.TaqI-V21G): < 5 u/μg

SMILES: C=CC[S+](CCC(N)C(=O)O)CC1OC(n2cnc3c(N)ncnc32)C(O)C1O (stereo not shown) [Cofactor 5]
- specific activity of M.TaqI with the cofactor (M.TaqI; [1]): 80 u/μg
- cofactor function for M.HhaI-Q82A (transfer of group Z-R to cytosine-C5) (M.HhaI-Q82A): functions as a cofactor
- specific activity of M.TaqI-V21G with the cofactor (M.TaqI-V21G): 640 u/μg

SMILES: C#CC[S+](CCC(N)C(=O)O)CC1OC(n2cnc3c(N)ncnc32)C(O)C1O (stereo not shown) [Cofactor 6]
- specific activity of M.TaqI with the cofactor (M.TaqI; [1]): 10 u/μg
- cofactor function for M.HhaI-Q82A (transfer of group Z-R to cytosine-C5) (M.HhaI-Q82A): functions as a cofactor
- specific activity of M.TaqI-V21G with the cofactor (M.TaqI-V21G): 20 u/μg

SMILES: CCC#CC[S+](CCC(N)C(=O)O)CC1OC(n2cnc3c(N)ncnc32)C(O)C1O (stereo not shown) [Cofactor 8]
- specific activity of M.TaqI with the cofactor (M.TaqI; [1]): 640 u/μg
- cofactor function for M.HhaI-Q82A (transfer of group Z-R to cytosine-C5) (M.HhaI-Q82A): functions as a cofactor
- specific activity of M.TaqI-V21G with the cofactor (M.TaqI-V21G): 80 u/μg

SMILES: NCCCC(=O)NCC#CC[S+](CCC(N)C(=O)O)CC1OC(n2cnc3c(N)ncnc32)C(O)C1O (stereo not shown) [Cofactor 10]
- specific activity of M.TaqI with the cofactor (M.TaqI; 1.03 μg phage lambda DNA, 60° C. for 1 h only (multiply by four to compare with 4 h values)): 11 u/μg
